Article PMC12635268, “Novel antimicrobial peptides and peptide-microbiome crosstalk in Appalachian salamander skin” (NPJ Biofilms and Microbiomes, 2025)
Like-named read-outs stand apart in the source and are kept apart here. Peptide text beside a SMILES is read from it.

Key:
[1] = tested on: K. pneumoniae 4640
[2] = tested on: A. baumannii 5075; conditions: Week 1 (12/6/2023)
[3] = tested on: P. aeruginosa PA01 (Si); test: microbe, parasite or virus in culture; type: cell-based
Source text: Supplement 41522_2025_837_MOESM13_ESM.xlsx, sheet "Table_S13_ESKAPEE-MIC" | column: Bacterial MIC (µg/mL)

[4] = tested on: S. aureus ATCC 43300; test: microbe, parasite or virus in culture; conditions: S. aureus 43300; Week 1 (12/6/2023)
Procedure: (§1) Antimicrobial susceptibility testing of the 20 synthesized peptides against 17 bacterial strains of clinical relevance in the ESKAPEE panel was conducted using minimum inhibitory concentration (MIC) assays following the broth microdilution method outlined by Parker et al.[91]. The ESKAPEE panel is comprised of fourteen American Type Culture Collection (ATCC) strains and three Multidrug Resistant Organism Repository and Surveillance Network (MRSN) bacterial strains. These strains represent at least one drug-susceptible strain and one drug-resistant strain for each bacterium to assess drug efficacy across various resistance mechanisms. This panel is comprised of the following bacterial species and strains: E. faecium (ATCC 19434, ATCC 49224), S. aureus (ATCC 25923, ATCC 43300), K. pneumoniae (ATCC 700603, ATCC 13883, MRSN 1320), A. baumannii (ATCC 17978, ATCC 19606, MRSN 959), P. aeruginosa (ATCC 15692, ATCC 27853, MRSN 5519), E. cloacae (ATCC 13047, ATCC 35549), and E. coli (ATCC 35218, ATCC 43888). Bacteria were grown in cation-adjusted Mueller-Hinton broth (CAMHB) to achieve a final inoculum of 1 × 10⁵ CFU/mL. CAMHB is selected for its batch-to-batch reproducibility, low levels of antimicrobial inhibitors, and ability to support the growth of most bacterial pathogens.
(§2) Briefly, lyophilized peptides were dissolved in 0.2% TFA + 0.4% BSA in water to 2.56 mg/mL, ultrasonicated for 20 min, diluted 10-fold into CAMHB, and then serially diluted 2-fold in 0.02% TFA + 0.04% BSA in CAMHB and assayed at a concentration of 0.25 to 128 μg/mL. Assays were set up using the Tecan Freedom EVO liquid handling robot and software (Tecan, Switzerland) with 50 μL of bacterial inoculum and 50 μL of peptide transferred into round-bottom 96-well microtiter plates. Each plate assay was performed in duplicate and incubated at 37 °C for 20 h without agitation. Bacterial growth was assessed using the BIOMIC V3 Image Analysis system (Giles Scientific, USA) and the MIC values were determined visually according to the Clinical and Laboratory Standards Institute (CLSI) guidelines.

[5] = tested on: E. faecium ATCC 49224; test: microbe, parasite or virus in culture
Procedure: as §1, §2

[6] = tested on: E. cloacae ATCC 13047; test: microbe, parasite or virus in culture
Procedure: as §1, §2

[7] = tested on: E. coli ATCC 35218; test: microbe, parasite or virus in culture; conditions: E. coli 35218; Week 1 (12/6/2023)
Procedure: as §1, §2

[8] = tested on: P. aeruginosa MRSN 5519; test: microbe, parasite or virus in culture
Procedure: as §1, §2

[9] = tested on: A. baumannii ATCC 19606; test: microbe, parasite or virus in culture
Procedure: as §1, §2

[10] = tested on: E. coli ATCC 43888; test: microbe, parasite or virus in culture
Procedure: as §1, §2

[11] = tested on: A. baumannii ATCC 17978; test: microbe, parasite or virus in culture
Procedure: as §1, §2

[12] = tested on: E. faecium ATCC 19434; test: microbe, parasite or virus in culture
Procedure: as §1, §2

[13] = tested on: K. pneumoniae ATCC 13883; test: microbe, parasite or virus in culture
Procedure: as §1, §2

[14] = tested on: E. cloacae ATCC 35549; test: microbe, parasite or virus in culture
Procedure: as §1, §2

[15] = tested on: P. aeruginosa ATCC 27853; test: microbe, parasite or virus in culture
Procedure: as §1, §2

[16] = tested on: S. aureus ATCC 25923; test: microbe, parasite or virus in culture
Procedure: as §1, §2

[17] = tested on: K. pneumoniae ATCC 700603; test: microbe, parasite or virus in culture; conditions: K. pneumoniae 700603; Week 1 (12/6/2023)
Procedure: as §1, §2

[18] = parameters: method as in Biomatik (vendor); conditions: 1.0 mg peptide in 1.0 ml solvent; peptides synthesized by Biomatik; ref Biomatik (vendor); cited from earlier work

N=C(N)NCCC[C@H](N)C(=O)N1CCC[C@H]1C(=O)N1CCC[C@H]1C(=O)NCC(=O)N[C@@H](Cc1ccccc1)C(=O)N[C@@H](CO)C(=O)N1CCC[C@H]1C(=O)N[C@@H](Cc1ccccc1)C(=O)O [PrMb-Eb14]
Bacterial MIC ([1]; K. pneumoniae 4640, Week 1 (12/6/2023)): >128.000 µg/mL | Bacterial MIC [2]: >128.000 µg/mL | Bacterial MIC ([3]; P. aeruginosa PA01 (Si), not typical ESKAPEE strain, Week 1 (12/6/2023)): >128.000 µg/mL | Bacterial MIC [4]: >128.000 µg/mL | Bacterial MIC ([5]; E. faecium 49224, Week 1 (12/6/2023)): >128.000 µg/mL | Bacterial MIC ([6]; E. cloacae 13047, Week 1 (12/6/2023)): >128.000 µg/mL | Bacterial MIC [7]: >128.000 µg/mL | Bacterial MIC ([8]; P. aeruginosa 5519, Week 1 (12/6/2023)): >128.000 µg/mL | Bacterial MIC ([9]; A. baumannii 19606, Week 1 (12/6/2023)): >128.000 µg/mL | Bacterial MIC ([10]; E. coli 43888, Week 1 (12/6/2023)): >128.000 µg/mL | Bacterial MIC ([11]; A. baumannii 17978, Week 1 (12/6/2023)): >128.000 µg/mL | Bacterial MIC ([12]; E. faecium 19434, Week 1 (12/6/2023)): >128.000 µg/mL | Bacterial MIC ([13]; K. pneumoniae 13883, Week 1 (12/6/2023)): >128.000 µg/mL | Bacterial MIC ([14]; E. cloacae 35549, Week 1 (12/6/2023)): >128.000 µg/mL | Bacterial MIC ([15]; P. aeruginosa 27853, Week 1 (12/6/2023)): >128.000 µg/mL | Bacterial MIC ([16]; S. aureus 25923, Week 1 (12/6/2023)): >128.000 µg/mL | Bacterial MIC [17]: >128.000 µg/mL | Suggest solvent (solubility) [18]: 1.0mg peptide soluble in 1.0ml H2O

CC[C@H](C)[C@H](NC(=O)[C@H](CCSC)NC(=O)[C@H](CS)NC(=O)[C@H](CC(C)C)NC(=O)[C@@H](NC(=O)[C@H](CS)NC(=O)[C@H](CS)NC(=O)[C@H](CCSC)NC(=O)[C@H](CS)NC(=O)[C@H](CO)NC(=O)[C@H](CC(C)C)NC(=O)[C@H](CCC(N)=O)NC(=O)[C@H](CCCCN)NC(=O)[C@H](Cc1c[nH]cn1)NC(=O)[C@H](CCC(N)=O)NC(=O)[C@H](Cc1c[nH]c2ccccc12)NC(=O)[C@@H](NC(=O)[C@@H](NC(=O)[C@H](CCC(=O)O)NC(=O)[C@@H](NC(=O)[C@H](CC(=O)O)NC(=O)[C@@H](NC(=O)[C@H](CC(C)C)NC(=O)[C@H](CC(=O)O)NC(=O)[C@@H](N)CCCCN)[C@@H](C)CC)[C@@H](C)O)[C@@H](C)O)[C@@H](C)O)C(C)C)C(=O)N[C@@H](C)C(=O)N[C@@H](CCCCN)C(=O)N[C@@H](CCCNC(=N)N)C(=O)N[C@@H](CS)C(=O)N[C@@H](CS)C(=O)O [Tr-Pc15] (H-KDLIDTETTWQHKQLSCMCCVLCMIAKRCC-OH; N-terminus and C-terminus assumed)
Bacterial MIC ([1]; 4640, 20 h): >128.000 µg/mL | Bacterial MIC ([3]; Si): >128.000 µg/mL | Bacterial MIC ([5]; ATCC 49224, 20 h): >128.000 µg/mL | Bacterial MIC ([6]; ATCC 13047, 20 h): >128.000 µg/mL | Bacterial MIC ([8]; MRSN 5519, 20 h): >128.000 µg/mL | Bacterial MIC ([9]; ATCC 19606, 20 h): >128.000 µg/mL | Bacterial MIC ([10]; ATCC 43888, 20 h): >128.000 µg/mL | Bacterial MIC ([11]; ATCC 17978, 20 h): >128.000 µg/mL | Bacterial MIC ([12]; ATCC 19434, 20 h): >128.000 µg/mL | Bacterial MIC ([13]; ATCC 13883, 20 h): >128.000 µg/mL | Bacterial MIC ([14]; ATCC 35549, 20 h): >128.000 µg/mL | Bacterial MIC ([15]; ATCC 27853, 20 h): >128.000 µg/mL | Bacterial MIC ([16]; ATCC 25923, 20 h): >128.000 µg/mL | Suggest solvent (solubility) [18]: 1.0mg peptide soluble in 1.0ml DMSO

CC[C@H](C)[C@H](NC(=O)CNC(=O)CNC(=O)[C@@H](NC(=O)[C@H](CS)NC(=O)[C@H](CCCCN)NC(=O)[C@H](CCCCN)NC(=O)CNC(=O)[C@@H](NC(=O)[C@@H]1CCCN1C(=O)[C@@H](N)CCC(N)=O)[C@@H](C)CC)[C@@H](C)O)C(=O)N[C@@H](CC(N)=O)C(=O)N[C@@H](CS)C(=O)N[C@@H](CCCCN)C(=O)N[C@@H](CCCCN)C(=O)NCC(=O)N1CCC[C@H]1C(=O)N1CCC[C@H]1C(=O)N[C@@H](CCCNC(=N)N)C(=O)N[C@@H](CC(C)C)C(=O)N[C@@H](CCCCN)C(=O)N1CCC[C@H]1C(=O)NCC(=O)O [TrPr-Pc6] (H-QPIGKKCTGGINCKKGPPRLKPG-OH; N-terminus and C-terminus assumed)
Bacterial MIC ([1]; 4640, 20 h): >128.000 µg/mL | Bacterial MIC [2]: >128.000 µg/mL | Bacterial MIC ([3]; Si): >128.000 µg/mL | Bacterial MIC [4]: >128.000 µg/mL | Bacterial MIC ([5]; ATCC 49224, 20 h): >128.000 µg/mL | Bacterial MIC ([6]; ATCC 13047, 20 h): >128.000 µg/mL | Bacterial MIC [7]: >128.000 µg/mL | Bacterial MIC ([8]; MRSN 5519, 20 h): >128.000 µg/mL | Bacterial MIC ([9]; ATCC 19606, 20 h): >128.000 µg/mL | Bacterial MIC ([10]; ATCC 43888, 20 h): >128.000 µg/mL | Bacterial MIC ([11]; ATCC 17978, 20 h): >128.000 µg/mL | Bacterial MIC ([12]; ATCC 19434, 20 h): >128.000 µg/mL | Bacterial MIC ([13]; ATCC 13883, 20 h): >128.000 µg/mL | Bacterial MIC ([14]; ATCC 35549, 20 h): >128.000 µg/mL | Bacterial MIC ([15]; ATCC 27853, 20 h): >128.000 µg/mL | Bacterial MIC ([16]; ATCC 25923, 20 h): >128.000 µg/mL | Bacterial MIC [17]: >128.000 µg/mL | Suggest solvent (solubility) [18]: 1.0mg peptide soluble in 1.0ml H2O

CC[C@H](C)[C@H](N)C(=O)N[C@@H](CC(C)C)C(=O)N[C@@H](CCCNC(=N)N)C(=O)N[C@@H](CCCCN)C(=O)N1CCC[C@H]1C(=O)N[C@@H](CCC(=O)O)C(=O)N[C@@H](CCCCN)C(=O)N[C@@H](CC(=O)O)C(=O)N[C@@H](CC(=O)O)C(=O)N[C@@H](CC(=O)O)C(=O)N[C@H](C(=O)N[C@@H](CO)C(=O)N[C@@H](CO)C(=O)N[C@@H](CCCNC(=N)N)C(=O)N[C@H](C(=O)NCC(=O)N[C@@H](Cc1ccc(O)cc1)C(=O)N[C@@H](CC(C)C)C(=O)N[C@@H](Cc1ccccc1)C(=O)N[C@@H](CS)C(=O)N[C@@H](CS)C(=O)N[C@@H](CCCCN)C(=O)N[C@@H](CCSC)C(=O)N[C@@H](CCCNC(=N)N)C(=O)N[C@@H](CC(C)C)C(=O)N[C@@H](CS)C(=O)N[C@@H](C)C(=O)N[C@@H](CS)C(=O)N[C@@H](CCCNC(=N)N)C(=O)N[C@@H](CCCNC(=N)N)C(=O)N[C@@H](CO)C(=O)O)[C@@H](C)CC)[C@@H](C)O [Tr-Eb4] (H-ILRKPEKDDDTSSRIGYLFCCKMRLCACRRS-OH; N-terminus and C-terminus assumed)
Bacterial MIC ([1]; 4640, 20 h): >128.000 µg/mL | Bacterial MIC ([3]; Si): >128.000 µg/mL | Bacterial MIC ([5]; ATCC 49224, 20 h): >128.000 µg/mL | Bacterial MIC ([6]; ATCC 13047, 20 h): >128.000 µg/mL | Bacterial MIC ([8]; MRSN 5519, 20 h): >128.000 µg/mL | Bacterial MIC ([9]; ATCC 19606, 20 h): >128.000 µg/mL | Bacterial MIC ([10]; ATCC 43888, 20 h): >128.000 µg/mL | Bacterial MIC ([11]; ATCC 17978, 20 h): >128.000 µg/mL | Bacterial MIC ([12]; ATCC 19434, 20 h): >128.000 µg/mL | Bacterial MIC ([13]; ATCC 13883, 20 h): >128.000 µg/mL | Bacterial MIC ([14]; ATCC 35549, 20 h): >128.000 µg/mL | Bacterial MIC ([15]; ATCC 27853, 20 h): >128.000 µg/mL | Bacterial MIC ([16]; ATCC 25923, 20 h): >128.000 µg/mL | Suggest solvent (solubility) [18]: 1.0mg peptide soluble in 1.0ml DMSO
